Series [1] deals with common carp. Briefly: In vivo bioconcentration test OECD TG 305, carp. Also noted: species or system Cyprinus carpio. Particulars: for Cf data, concentration measured in individual fish: BaP background corrected. The protocol:
(§1) In vivo BCF values for MXC and BaP in carp and trout were determined in bioconcentration tests with both species in accordance to OECD TG 305 ([OECD, 2012]). The studies were approved by the State Agency for Nature, Environment and Consumer Protection (LANUV) North Rhine-Westphalia. The fish were exposed to a single concentration of both test items in a flow-through system for 35 days. No control groups were used. Dosing was performed by a solid-phase desorption system which was integrated in the fresh water supply allowing for a constant delivery of test concentrations to the fish chambers. The procedure of column generated concentrations was described in detail by [Schlechtriem et al. (2017)]. For the present study, two packed columns containing each 500 g Florisil® loaded with 200 mg of either MXC or BaP were used for each fish chamber. The uptake (exposure) phase of the study was followed by a 35 days depuration phase in uncontaminated water. The flow-through rate was maintained at 38.6 L/h for carp and 30.1 L/h for trout throughout the test. […] Additional 2-4 fish were sampled each, at the start and at the end of the exposure period, as well as at the end of the depuration period for lipid analysis. The total lipid content of the fish was measured individually by gravimetric analysis according to [Smedes (1999)].
(§2) Water samples (400 ml) were taken from the test chambers at least three times per week. Preparation for chemical analysis was performed by liquid-liquid extraction using n-hexane (10 ml) containing deuterated MXC (35 ng). The purified organic phase was subdivided into two equal parts and evaporated to dryness under a stream of nitrogen. One part of the residue was dissolved in 200 µL DCM for MXC analysis. The other part was mixed with 1 ml ACN: water (8:2, v/v) and subjected to BaP analysis. Whole fish samples were prepared for chemical analysis individually. After grinding the tissue with the addition of dry ice in a Thermomix™ 31 (Vorwerk), the finely powdered homogenate was lyophilized using an AdVantage freeze dryer (Ismatec). Aliquots of the dry samples (0.5 g) were spiked with deuterated internal standards (5 ng MXC-d6 and 0.2 ng BaP-d12) and extracted three times with acetone: DCM (1:1, v/v) (10 ml). The pooled extracts were then extracted with ultra-pure water (45 ml) and mixed with sodium chloride (5 g) to remove acetone and matrix. The organic phase was concentrated (0.5 ml) and dissolved in cyclohexane: DCM (1:1, v/v) (4.2 ml). This was subjected to gel permeation chromatography (GPC) (GILSON system equipped with pump 307, syringe pump 402, GX-271 liquid handler, 508 interface module, and Trilution® LC software; column i. d. 1.5 cm, material Bio-Beads S-X3, 200–400 mesh, Bio-Rad, flow rate 2 ml/min). Eluates containing MXC (26–31 min retention time) and BaP (32–38 min retention time) were evaporated to dryness and dissolved in hexane (1 ml) and toluol (50 µL), respectively. The collected MXC extracts were further concentrated by solid-phase extraction (SPE, Sep-Pak® Vac 12cc, 2 g, silica cartridges, Waters) using DCM: n-hexane (50:50, v/v) as eluent. Eluent and hexane were used to equilibrate and condition the column before sample loading and subsequent washing with DCM: n-hexane (30:70, v/v). The eluate containing MXC was dried down and reconstituted in toluol (0.5 ml).
(§3) MXC in the organic phase of samples from the in vitro incubations and in DCM extracts of water samples from the in vivo bioconcentration tests were analyzed by gas chromatography-mass spectrometry (GC-MS). The GC-MS system consisted of a HP5890 series II GC coupled to a HP5972 mass sensitive detector (Hewlett-Packard). Separations were performed on 5% phenyl polysilphenylene-siloxane capillary columns (BPX-5, 30 m length x 0.25 mm i. d, 0.25 µm df, SGE). […]

Series [2] can be described thus: In vivo bioconcentration test OECD TG 305, carp. On the set-up: species or system Cyprinus carpio. The following applies: common carp (Cyprinus carpio); for concentration at 40 d: day 40 (depuration); for concentration at 44 d: day 44 (depuration). The protocol: as §1, §2, §3
Setting [3] is: common carp (Cyprinus carpio), in vivo.
[4] abbreviates: in vivo, Cf data, concentration measured in individual fish.
The mark [5] stands for this setting: in vivo, common carp, day 7 (uptake), read-out: Mean Cf.
Where [6] appears, read: in vivo, common carp, day 14 (uptake), read-out: Mean Cf.
Where [7] appears, read: in vivo, common carp, day 21 (uptake), read-out: Mean Cf.
Where [8] appears, read: in vivo, common carp, day 28 (uptake), read-out: Mean Cf.
Setting [9] is: in vivo, common carp, day 35 (end of uptake), read-out: Mean Cf.
Setting [10] is: in vivo, common carp, read-out: Mean Cf.
[11] abbreviates: in vivo, common carp, BaP background corrected, read-out: Cf data, concentration measured in individual fish.

“And” between values parts separate entries of the source, which are not always exact repeats. Identical values can stand only once. Like-named read-outs stand apart in the source and are kept apart here.

Take `c1ccc2c(c1)cc1ccc3cccc4ccc2c1c34` [BaP, benzo[a]pyrene]: in series [1] (setting [3]), the “Cf,SS concentration in fish at steady-state” value was 0.157 µg/kg; the “kB, in vivo estimate Carp” value is 0.48 day⁻¹; the “kB, in vivo estimate, range of 95% probability” value was 0.16–1.4; the “kT depuration rate constant” value turned out to be 0.493 day⁻¹. Moreover, the “kTG growth corrected depuration rate constant” value in series [1] (setting [3]) amounted to 0.482 day⁻¹. For the same molecule, the “BCFSSL lipid-normalized steady-state bioconcentration factor” value in series [1] (common carp (Cyprinus carpio), in vivo, 35 d) was found to be 73 L/kg. In series [2] (setting [4]), this molecule registered a concentration at 7 d of 0.204 ng/g, a concentration at 14 d of 0.168 ng/g, a concentration at 21 d of 0.136 ng/g and a concentration at 28 d of 0.13 ng/g. In addition, the concentration at 35 d in series [2] (setting [4]) was 0.149 ng/g. In addition, in series [2] (setting [5]), the concentration at 7 d was found to be 0.216 ng/g. Also, the concentration at 14 d in series [2] (setting [6]) came to 0.172 ng/g. Besides, the concentration at 21 d in series [2] (setting [7]) worked out at 0.154 ng/g. The concentration at 28 d in series [2] (setting [8]) stood at 0.148 ng/g. In series [2] (setting [9]), the concentration at 35 d is 0.153 ng/g. Also, in series [2] (setting [10]), the concentration at 40 d was 0.013 ng/g and the concentration at 44 d amounted to 0.002 ng/g. The concentration at 14 d in series [2] (whole fish, other: exposure via water in a flow-through system, common carp, day 14 (uptake), BaP background corrected, read-out: Cf data, concentration measured in individual fish) was 0.141 ng/g.
Regarding `COc1ccc(C(c2ccc(OC)cc2)C(Cl)(Cl)Cl)cc1` [MXC, methoxychlor], the “Cf,SS concentration in fish at steady-state” value in series [1] (common carp) was found to be 8.24 µg/kg. In addition, in series [1] (common carp), the “kT depuration rate constant” value was 0.255 day⁻¹. Besides, the “kTG growth corrected depuration rate constant” value in series [1] (common carp) turned out to be 0.244 day⁻¹. Further, the “BCFSSL lipid-normalized steady-state bioconcentration factor” value in series [1] (common carp, 5% lipid content) was 621 L/kg. For the same molecule, the “Cf data, concentration measured in individual fish” value is 11.7 µg/kg and 10.7 µg/kg and 13.8 µg/kg in series [1] (common carp, day 7 (uptake)); 9.30 µg/kg and 10.0 µg/kg and 8.83 µg/kg in series [1] (common carp, day 14 (uptake)); 9.96 µg/kg and 6.95 µg/kg and 8.16 µg/kg in series [1] (common carp, day 21 (uptake)); 5.90 µg/kg and 7.85 µg/kg and 7.00 µg/kg in series [1] (common carp, day 28 (uptake)); 7.32 µg/kg and 7.30 µg/kg and 7.40 µg/kg in series [1] (common carp, day 35 (end of uptake)); 2.71 µg/kg and 1.73 µg/kg and 2.16 µg/kg in series [1] (common carp, day 40 (depuration)). In addition, in series [1] (common carp, day 44 (depuration)), the “Cf data, concentration measured in individual fish” value is 0.719 µg/kg and 0.956 µg/kg and 0.535 µg/kg. Further, the concentration at 7 d in series [2] (in vivo, common carp, day 7 (uptake), BaP background corrected, read-out: Cf data, concentration measured in individual fish) was 12.8 ng/g; in series [2] (setting [5]), 12.2 ng/g. Moreover, the concentration at 14 d in series [2] (in vivo, common carp, day 14 (uptake), BaP background corrected, read-out: Cf data, concentration measured in individual fish) came to 11.4 ng/g; in series [2] (setting [6]) it was 9.88 ng/g. Also, the concentration at 21 d in series [2] (in vivo, common carp, day 21 (uptake), BaP background corrected, read-out: Cf data, concentration measured in individual fish) amounted to 9.16 ng/g; in series [2] (setting [7]), 8.56 ng/g. Besides, the concentration at 28 d in series [2] (in vivo, common carp, day 28 (uptake), BaP background corrected, read-out: Cf data, concentration measured in individual fish) is 7.02 ng/g; in series [2] (setting [8]), 6.94 ng/g. Besides, the concentration at 35 d came to 8.35 ng/g in series [2] (in vivo, common carp, day 35 (end of uptake), BaP background corrected, read-out: Cf data, concentration measured in individual fish) and 7.59 ng/g in series [2] (setting [9]). In addition, the results for the concentration at 40 d in series [2] (setting [11]) and in series [2] (setting [10]) were 3.02 ng/g and 2.4 ng/g, respectively. Further, the concentration at 44 d turned out to be 0.819 ng/g in series [2] (setting [11]) and 0.757 ng/g in series [2] (setting [10]).

(Values after paper PMC9538944, “In vitro biotransformation assays using fish liver cells: Comparing rainbow trout and carp hepatocytes” (Frontiers in Toxicology, 2022).)
